Columns and labels:
[1] = system: HER-2-E0771 mammary tumour cells; assay: Tumour growth of HER-2-E0771 mammary tumours in HER-2 TG mice after adoptive transfer of control or Ptpn2-/- HER-2 CAR T cells, with MSI-1436 treatment; type: in vivo; settings: MSI-1436 5 mg/kg intraperitoneally on days 1, 4 and 7 post adoptive transfer of total 5×10^6 control or Ptpn2-/- HER-2 CAR T cells; versus saline; female HER-2 TG mice
Protocol: HER-2-E0771 mammary tumour cells (2×10^5) were injected into the fourth inguinal mammary fat pads of female HER-2 TG mice. Seven days after tumour injection HER-2 TG mice received total body irradiation (4 Gy) followed by the adoptive transfer of total 5×10^6 HER-2 CAR T cells (=0.8×10^6 viable mCherry^+HER-2 CAR^+CD8^+CD44^hiCD62L^hi T cells) control (ctrl) or Ptpn2^−/− HER-2 CAR CD8 T cells (PTPN2 had been deleted by CRISPR-RNP). HER-2 mice were treated with MSI-1436 (5 mg/kg intraperitoneally) or saline on days 1, 4, and 7 post adoptive transfer and tumour growth was monitored. Significance in was determined using 2-way ANOVA Test; ****p<0.0001.

[2] = system: HER-2-E0771 mammary tumour cells; assay: Tumour growth of HER-2-E0771 mammary tumours in HER-2 TG mice after adoptive transfer of HER-2 CAR T cells, with MSI-1436 treatment; type: in vivo; settings: MSI-1436 5 mg/kg intraperitoneally on days 1, 4, 7, 10, 13, 16 and 19 post adoptive transfer of total 20×10^6 HER-2 CAR T cells; versus saline; no IL-2; female HER-2 TG mice
Protocol: HER-2-E0771 mammary tumour cells (2×10^5) were injected into the fourth inguinal mammary fat pads of female HER-2 TG mice. Seven days after tumour injection HER-2 TG mice received total body irradiation (4 Gy) followed by the adoptive transfer of total 20×10^6 HER-2 CAR T cells (=6×10^6 viable mCherry^+HER2 CAR^+CD8^+CD44^hiCD62L^hi T cells) generated from Ptp1b^fl/fl versus Lck-Cre;Ptp1b^fl/fl splenocytes; mice were not administered IL-2. Mice were treated with PTP1B specific allosteric inhibitor MSI-1436 (5 mg/kg intraperitoneally) or saline on days 1, 4, 7, 10, 13, 16 and 19 post adoptive transfer and tumour growth was monitored. Representative results (means±SEM) from at least two independent experiments are shown. Significance was determined using 2-way ANOVA Test; *p<0.05 ****p<0.0001.
HER-2-E0771 mammary tumour cells (2×10^5) were injected into the fourth inguinal mammary fat pads of female HER-2 TG mice. […] Mice were treated with PTP1B specific allosteric inhibitor MSI-1436 (5 mg/kg intraperitoneally) or saline on days 1, 4, 7, 10, 13, 16 and 19 post adoptive transfer and tumour growth was monitored. […] Significance was determined using 2-way ANOVA Test; *p<0.05, ****p<0.0001.

For `CC(C)[C@@H](CC[C@@H](C)[C@H]1CC[C@H]2[C@@H]3[C@H](O)C[C@H]4C[C@@H](NCCCNCCCCNCCCN)CC[C@]4(C)[C@H]3CC[C@]12C)OS(=O)(=O)O` [MSI-1436, Trodusquemine], which “tumour growth (activity of CAR T cells in vivo)” value [1] is on record?
The value was “‘supercharges’ CAR T cells in vivo”.

What about the “tumour growth (tumour-specific activity of HER2 CAR T cells in vivo)” value [2] of the same molecule?
Its value is “Enhances the Tumour-Specific Activity of HER2 CAR T Cells In Vivo”.

Reference: patent US20230355670A1, “Methods of activating cytotoxic leukocytes using PTP1B and PTPN2 inhibitors” (Monash University, priority 2019, published 2023)
